Laboratory results: the supplement of paper PMC10307832

Legend:
Test in all cases: relative viability (nuclei count vs DMSO), 5 days (fraction); higher = more cells survive
NCI-H650 = tested on: NCI-H650
How it was run: (§1)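 Relative viability equals treated-well nuclei counts divided by vehicle-well nuclei counts. Counts came from 4× images of lung cancer cell lines grown in 1536-well plates for 5 days after pin-tool dosing on the day after seeding. Dosing used one drug alone or a fixed anchor-drug dose plus five library-drug doses (not always all listed) in √10 steps, and values are medians of duplicate plates.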

NCI-H2405 = tested on: NCI-H2405
How it was run: as §1

COR-L23 = tested on: COR-L23
How it was run: as §1

NCI-H520 = tested on: NCI-H520
How it was run: as §1

LU99A = tested on: LU99A
How it was run: as §1

NCI-H2085 = tested on: NCI-H2085
How it was run: as §1

H3255 = tested on: H3255
How it was run: as §1

SK-MES-1 = tested on: SK-MES-1
How it was run: as §1

NCI-H2087 = tested on: NCI-H2087
How it was run: as §1

HCC-44 = tested on: HCC-44
How it was run: as §1

NCI-H2023 = tested on: NCI-H2023
How it was run: as §1

NCI-H1651 = tested on: NCI-H1651
How it was run: as §1

NCI-H1563 = tested on: NCI-H1563
How it was run: as §1

ChaGo-K-1 = tested on: ChaGo-K-1
How it was run: as §1

NCI-H1944 = tested on: NCI-H1944
How it was run: as §1

HCC-827 = tested on: HCC-827
How it was run: as §1

LCLC-103H = tested on: LCLC-103H
How it was run: as §1

EMC-BAC-2 = tested on: EMC-BAC-2
How it was run: as §1

NCI-H838 = tested on: NCI-H838
How it was run: as §1

EPLC-272H = tested on: EPLC-272H
How it was run: as §1

## O=c1cc(N2CCOCC2)oc2c(-c3cccc4c3sc3ccccc34)cccc12 + C[C@@H](Oc1cc(-c2cnn(C3CCNCC3)c2)cnc1N)c1c(Cl)ccc(F)c1Cl [Crizotinib] (partner 1 µM)
NCI-H650; first compound 0.01 µM
  relative viability: 0.738
NCI-H650; first compound 0.03162 µM
  relative viability: 0.82
NCI-H650; first compound 0.3162 µM
  relative viability: 0.868
NCI-H650; first compound 1 µM
  relative viability: 0.587
NCI-H2405; first compound 0.01 µM
  relative viability: 0.814
NCI-H2405; first compound 0.03162 µM
  relative viability: 0.856
NCI-H2405; first compound 0.1 µM
  relative viability: 0.915
NCI-H2405; first compound 0.3162 µM
  relative viability: 0.849
NCI-H2405; first compound 1 µM
  relative viability: 0.84
COR-L23; first compound 0.01 µM
  relative viability: 0.62
COR-L23; first compound 0.03162 µM
  relative viability: 0.732
COR-L23; first compound 0.1 µM
  relative viability: 0.819
COR-L23; first compound 0.3162 µM
  relative viability: 0.638
COR-L23; first compound 1 µM
  relative viability: 0.597
NCI-H520; first compound 0.01 µM
  relative viability: 0.824
NCI-H520; first compound 0.03162 µM
  relative viability: 0.739
NCI-H520; first compound 0.1 µM
  relative viability: 1.04
NCI-H520; first compound 0.3162 µM
  relative viability: 0.697
NCI-H520; first compound 1 µM
  relative viability: 0.825
LU99A; first compound 0.01 µM
  relative viability: 0.647
LU99A; first compound 0.03162 µM
  relative viability: 0.574
LU99A; first compound 0.1 µM
  relative viability: 0.577
LU99A; first compound 0.3162 µM
  relative viability: 0.535
LU99A; first compound 1 µM
  relative viability: 0.573
NCI-H2085; first compound 0.01 µM
  relative viability: 0.941
NCI-H2085; first compound 0.03162 µM
  relative viability: 0.89
NCI-H2085; first compound 0.1 µM
  relative viability: 0.879
NCI-H2085; first compound 0.3162 µM
  relative viability: 0.841
NCI-H2085; first compound 1 µM
  relative viability: 0.889
H3255; first compound 0.01 µM
  relative viability: 0.871
H3255; first compound 0.03162 µM
  relative viability: 1.05
H3255; first compound 0.1 µM
  relative viability: 0.971
H3255; first compound 0.3162 µM
  relative viability: 0.926
H3255; first compound 1 µM
  relative viability: 0.769
SK-MES-1; first compound 0.01 µM
  relative viability: 0.965
SK-MES-1; first compound 0.03162 µM
  relative viability: 0.991
SK-MES-1; first compound 0.1 µM
  relative viability: 1.01
SK-MES-1; first compound 0.3162 µM
  relative viability: 1.01
SK-MES-1; first compound 1 µM
  relative viability: 1.04
NCI-H2087; first compound 0.01 µM
  relative viability: 0.884
NCI-H2087; first compound 0.03162 µM
  relative viability: 1.07
NCI-H2087; first compound 0.1 µM
  relative viability: 0.84
NCI-H2087; first compound 0.3162 µM
  relative viability: 0.682
NCI-H2087; first compound 1 µM
  relative viability: 0.838
HCC-44; first compound 0.01 µM
  relative viability: 0.862
HCC-44; first compound 0.03162 µM
  relative viability: 0.811
HCC-44; first compound 0.1 µM
  relative viability: 0.814
HCC-44; first compound 0.3162 µM
  relative viability: 0.788
HCC-44; first compound 1 µM
  relative viability: 0.776
NCI-H2023; first compound 0.01 µM
  relative viability: 0.574
NCI-H2023; first compound 0.03162 µM
  relative viability: 0.589
NCI-H2023; first compound 0.1 µM
  relative viability: 0.663
NCI-H2023; first compound 0.3162 µM
  relative viability: 0.616
NCI-H2023; first compound 1 µM
  relative viability: 0.586
NCI-H1651; first compound 0.01 µM
  relative viability: 0.878
NCI-H1651; first compound 0.03162 µM
  relative viability: 0.92
NCI-H1651; first compound 0.1 µM
  relative viability: 0.948
NCI-H1651; first compound 0.3162 µM
  relative viability: 0.853
NCI-H1651; first compound 1 µM
  relative viability: 0.859
NCI-H1563; first compound 0.01 µM
  relative viability: 0.809
NCI-H1563; first compound 0.03162 µM
  relative viability: 0.795
NCI-H1563; first compound 0.1 µM
  relative viability: 0.848
NCI-H1563; first compound 0.3162 µM
  relative viability: 0.711
NCI-H1563; first compound 1 µM
  relative viability: 0.82
ChaGo-K-1; first compound 0.01 µM
  relative viability: 1.17
ChaGo-K-1; first compound 0.03162 µM
  relative viability: 1.16
ChaGo-K-1; first compound 0.1 µM
  relative viability: 1.23
ChaGo-K-1; first compound 0.3162 µM
  relative viability: 1.08
ChaGo-K-1; first compound 1 µM
  relative viability: 1.08
NCI-H1944; first compound 0.01 µM
  relative viability: 1.05
NCI-H1944; first compound 0.03162 µM
  relative viability: 1.03
NCI-H1944; first compound 0.1 µM
  relative viability: 1.18
NCI-H1944; first compound 0.3162 µM
  relative viability: 1.03
NCI-H1944; first compound 1 µM
  relative viability: 1.04
HCC-827; first compound 0.01 µM
  relative viability: 0.918
HCC-827; first compound 0.03162 µM
  relative viability: 0.939
HCC-827; first compound 0.1 µM
  relative viability: 0.873
HCC-827; first compound 0.3162 µM
  relative viability: 0.965
HCC-827; first compound 1 µM
  relative viability: 0.956
LCLC-103H; first compound 0.01 µM
  relative viability: 1.06
LCLC-103H; first compound 0.03162 µM
  relative viability: 0.976
LCLC-103H; first compound 0.1 µM
  relative viability: 1.12
LCLC-103H; first compound 0.3162 µM
  relative viability: 0.958
LCLC-103H; first compound 1 µM
  relative viability: 1.07
EMC-BAC-2; first compound 0.01 µM
  relative viability: 0.787
EMC-BAC-2; first compound 0.03162 µM
  relative viability: 0.788
EMC-BAC-2; first compound 0.1 µM
  relative viability: 0.847
EMC-BAC-2; first compound 0.3162 µM
  relative viability: 0.77
EMC-BAC-2; first compound 1 µM
  relative viability: 0.735
NCI-H838; first compound 0.01 µM
  relative viability: 0.876
NCI-H838; first compound 0.03162 µM
  relative viability: 0.77
NCI-H838; first compound 0.1 µM
  relative viability: 0.849
NCI-H838; first compound 0.3162 µM
  relative viability: 0.744
NCI-H838; first compound 1 µM
  relative viability: 0.787
EPLC-272H; first compound 0.01 µM
  relative viability: 0.909
EPLC-272H; first compound 0.03162 µM
  relative viability: 1.07
EPLC-272H; first compound 0.3162 µM
  relative viability: 0.937
EPLC-272H; first compound 1 µM
  relative viability: 0.896
